Consider one substance from ChEMBL document CHEMBL2074043, “Investigation of fractions present in the stem bark of Annickia kummeriae on their P-glycoprotein inhibitory pump activity” (Phytother Res, 2004).

The series concerns the target ATP-dependent translocase ABCB1 (Homo sapiens, UniProt P08183). In words: TP_TRANSPORTER: increase in intracellular accumulation of rhodamine 6G in […] cell. Format: functional, cell-based.

ATP-dependent translocase ABCB1, sequence (P08183 whole entry): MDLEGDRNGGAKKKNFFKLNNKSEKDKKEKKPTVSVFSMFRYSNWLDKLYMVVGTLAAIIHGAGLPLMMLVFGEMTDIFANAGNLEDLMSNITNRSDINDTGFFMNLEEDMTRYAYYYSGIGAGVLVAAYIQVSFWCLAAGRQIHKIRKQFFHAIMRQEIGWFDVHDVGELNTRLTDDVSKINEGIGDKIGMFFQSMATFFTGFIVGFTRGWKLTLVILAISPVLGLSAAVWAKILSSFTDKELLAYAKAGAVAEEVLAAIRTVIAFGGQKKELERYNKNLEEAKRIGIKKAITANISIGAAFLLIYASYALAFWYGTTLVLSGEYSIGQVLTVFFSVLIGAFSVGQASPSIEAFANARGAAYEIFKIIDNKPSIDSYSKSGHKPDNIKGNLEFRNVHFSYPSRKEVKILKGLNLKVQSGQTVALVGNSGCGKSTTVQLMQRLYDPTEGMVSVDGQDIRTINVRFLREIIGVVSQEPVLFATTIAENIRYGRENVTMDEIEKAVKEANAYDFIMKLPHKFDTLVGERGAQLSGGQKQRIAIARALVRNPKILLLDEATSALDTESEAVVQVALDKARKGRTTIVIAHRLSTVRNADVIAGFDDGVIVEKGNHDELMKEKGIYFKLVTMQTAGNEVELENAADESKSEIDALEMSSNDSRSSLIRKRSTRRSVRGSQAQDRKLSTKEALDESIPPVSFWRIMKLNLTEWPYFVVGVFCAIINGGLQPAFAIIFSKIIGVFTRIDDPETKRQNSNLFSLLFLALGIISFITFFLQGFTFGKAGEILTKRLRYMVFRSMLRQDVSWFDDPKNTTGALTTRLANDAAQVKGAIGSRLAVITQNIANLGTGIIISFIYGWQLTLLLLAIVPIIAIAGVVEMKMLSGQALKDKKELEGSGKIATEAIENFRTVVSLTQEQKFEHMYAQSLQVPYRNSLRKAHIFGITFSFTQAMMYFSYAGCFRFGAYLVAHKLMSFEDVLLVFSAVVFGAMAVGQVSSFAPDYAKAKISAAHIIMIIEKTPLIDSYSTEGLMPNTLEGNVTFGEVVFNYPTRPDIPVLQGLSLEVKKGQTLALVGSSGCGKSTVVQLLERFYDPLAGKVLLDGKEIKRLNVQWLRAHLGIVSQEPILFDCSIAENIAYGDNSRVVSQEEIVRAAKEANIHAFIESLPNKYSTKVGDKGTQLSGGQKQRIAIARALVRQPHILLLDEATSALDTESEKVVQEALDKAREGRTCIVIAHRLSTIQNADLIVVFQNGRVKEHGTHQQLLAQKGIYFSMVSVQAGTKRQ

For the substance STEM BARK OF ANNICKIA KUMMERIAE EXTRACT, the Activity result was “inhibitor [+]”.
